Experimental data as given in patent US20230113037A1 (Bayer Aktiengesellschaft, priority 2019, published 2023).
Read-outs that look alike come from different tables or passages of the source.

Tests used:
AHR [1] = target: T1, AHR (Mus musculus, UniProt P30561); assay: In vitro assay 3: antagonism in mouse cell line (AHR transactivation, firefly luciferase reporter, kynurenic acid prestimulated); format: cell-based
T1 sequence (P30561 1-848 P471L/N533S/M589L): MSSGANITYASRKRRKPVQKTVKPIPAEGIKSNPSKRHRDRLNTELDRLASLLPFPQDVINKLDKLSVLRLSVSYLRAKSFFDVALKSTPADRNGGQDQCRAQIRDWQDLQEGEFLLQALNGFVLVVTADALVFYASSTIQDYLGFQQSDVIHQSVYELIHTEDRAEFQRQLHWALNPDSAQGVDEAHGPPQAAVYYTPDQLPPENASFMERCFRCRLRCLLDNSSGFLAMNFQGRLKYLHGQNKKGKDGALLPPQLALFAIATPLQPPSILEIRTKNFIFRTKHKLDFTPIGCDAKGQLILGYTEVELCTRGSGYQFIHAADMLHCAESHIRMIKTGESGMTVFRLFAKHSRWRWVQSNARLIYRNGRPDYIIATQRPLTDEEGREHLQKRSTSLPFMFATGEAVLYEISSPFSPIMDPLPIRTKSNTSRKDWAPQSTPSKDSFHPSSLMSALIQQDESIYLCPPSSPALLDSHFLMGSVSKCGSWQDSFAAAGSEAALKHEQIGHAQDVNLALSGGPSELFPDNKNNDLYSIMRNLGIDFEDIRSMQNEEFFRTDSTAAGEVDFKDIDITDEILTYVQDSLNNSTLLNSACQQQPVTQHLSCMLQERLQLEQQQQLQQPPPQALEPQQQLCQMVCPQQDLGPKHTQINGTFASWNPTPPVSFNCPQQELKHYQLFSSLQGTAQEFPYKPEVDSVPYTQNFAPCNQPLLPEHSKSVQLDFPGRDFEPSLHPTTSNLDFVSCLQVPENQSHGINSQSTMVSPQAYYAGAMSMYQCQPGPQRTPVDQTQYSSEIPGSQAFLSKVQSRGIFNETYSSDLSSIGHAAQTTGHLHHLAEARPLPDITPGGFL
In short: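 Luminescence from an AHR-dependent DRE-luciferase reporter, stably integrated in mouse cells, quantifies blockade of kynurenic acid-driven activation. Unstimulated cells mark maximal inhibition; normalization uses both control types, and multiply tested compounds carry mean or median values.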

AHR [2] = target: T2, AHR (Homo sapiens, UniProt P35869); assay: In vitro assay 1: antagonism in human cell line (AHR transactivation, firefly luciferase reporter, kynurenic acid prestimulated); format: cell-based; conditions: AHR Antagonism Human IC50 [M]
T2 construct: U87 MG glioblastoma cells (ATCC #HTB-14) endogenously expressing AHR; endogenous in cells; host or cells: U87 MG glioblastoma cells (ATCC #HTB-14)
T2 sequence (P35869 11-848): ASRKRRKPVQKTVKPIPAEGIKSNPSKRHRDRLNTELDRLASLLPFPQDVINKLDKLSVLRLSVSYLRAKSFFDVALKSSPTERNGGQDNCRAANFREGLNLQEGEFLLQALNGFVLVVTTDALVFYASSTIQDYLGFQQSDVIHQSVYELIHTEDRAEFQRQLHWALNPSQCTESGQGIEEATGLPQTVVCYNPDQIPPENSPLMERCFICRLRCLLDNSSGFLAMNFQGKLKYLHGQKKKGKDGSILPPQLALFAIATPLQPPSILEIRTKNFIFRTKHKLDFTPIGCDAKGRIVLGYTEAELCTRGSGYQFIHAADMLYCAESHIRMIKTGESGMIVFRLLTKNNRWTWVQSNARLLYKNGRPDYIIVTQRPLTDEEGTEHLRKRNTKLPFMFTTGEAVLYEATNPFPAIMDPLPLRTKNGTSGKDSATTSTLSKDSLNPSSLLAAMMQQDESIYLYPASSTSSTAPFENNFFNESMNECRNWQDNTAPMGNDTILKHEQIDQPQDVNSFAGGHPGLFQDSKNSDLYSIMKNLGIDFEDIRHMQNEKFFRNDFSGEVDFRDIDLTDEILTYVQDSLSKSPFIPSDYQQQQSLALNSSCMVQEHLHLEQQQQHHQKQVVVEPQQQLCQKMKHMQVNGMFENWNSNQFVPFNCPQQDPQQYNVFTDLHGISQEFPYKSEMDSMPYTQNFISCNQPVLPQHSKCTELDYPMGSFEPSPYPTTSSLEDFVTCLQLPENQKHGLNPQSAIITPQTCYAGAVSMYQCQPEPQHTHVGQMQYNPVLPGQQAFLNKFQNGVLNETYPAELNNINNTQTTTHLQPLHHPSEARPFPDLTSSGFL
In short: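 Antagonism measured as loss of kynurenic acid-driven firefly luciferase from DRE reporter in stably transfected U87 MG cells; constitutive Renilla signal monitors cytotoxicity. Positive/negative control normalization, staurosporine 5 μM with 150 μM kynurenic acid as inhibition control; replicates given as mean or median.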

[3] = mouse Hepa 1c1c7 cells, 200 μM kynurenic acid, 20 hours, read-out: AHR Antagonism Mouse IC50
[4] = read-out: AHR Antagonism Mouse IC50, mouse Hepa 1c1c7 cells, 200 μM kynurenic acid, 20 hours

COc1cccc(-c2nc3c4ccccc4nc(NC4CCCNC4=O)n3n2)c1 (single isomer, unassigned) [Example 119, 3-{[2-(3-methoxyphenyl)[1,2,4]triazolo[1,5-c]quinazolin-5-yl]amino}piperidin-2-one]
IC50 (AHR [1]; [3]): 202 nM
IC50 (AHR [2]): 7.8e-07 M

COc1cccc(-c2nc3c4ccccc4nc(NC4CCNC4=O)n3n2)c1 (single isomer, unassigned) [Example 120, 3-{[2-(3-methoxyphenyl)[1,2,4]triazolo[1,5-c]quinazolin-5-yl]amino}pyrrolidin-2-one]
IC50 (AHR [1]; [3]): 56.1 nM
IC50 (AHR [2]): 6.02e-08 M

COc1cccc(-c2nc3c4ccccc4nc(NC4CCNC4=O)n3n2)c1 (single isomer, unassigned) [Example 121, 3-{[2-(3-methoxyphenyl)[1,2,4]triazolo[1,5-c]quinazolin-5-yl]amino}pyrrolidin-2-one]
IC50 (AHR [1]; [3]): 275 nM
IC50 (AHR [2]): 1.96e-07 M

COc1cccc(-c2nc3c4ccccc4nc(NC4CCN(C)C4=O)n3n2)c1 (single isomer, unassigned) [Example 122, 3-{[2-(3-methoxyphenyl)[1,2,4]triazolo[1,5-c]quinazolin-5-yl]amino}-1-methylpyrrolidin-2-one]
IC50 (AHR [1]; [3]): 26.1 nM
IC50 (AHR [2]): 5.55e-08 M

COc1cccc(-c2nc3c4ccccc4nc(NC4CCN(C)C4=O)n3n2)c1 (single isomer, unassigned) [Example 123, 3-{[2-(3-methoxyphenyl)[1,2,4]triazolo[1,5-c]quinazolin-5-yl]amino}-1-methylpyrrolidin-2-one]
IC50 (AHR [1]; [3]): 1870 nM
IC50 (AHR [2]): 3.65e-07 M

COc1cccc(-c2nc3c4cc(F)ccc4nc(NC4CCNC4=O)n3n2)c1 (single isomer, unassigned) [Example 186, 3-{[9-fluoro-2-(3-methoxyphenyl)[1,2,4]triazolo[1,5-c]quinazolin-5-yl]amino}pyrrolidin-2-one]
IC50 (AHR [1]; [3]): 27.6 nM
IC50 (AHR [2]): 2.09e-08 M

COc1cccc(-c2nc3c4cc(F)ccc4nc(NC4CCNC4=O)n3n2)c1 (single isomer, unassigned) [Example 187, 3-{[9-fluoro-2-(3-methoxyphenyl)[1,2,4]triazolo[1,5-c]quinazolin-5-yl]amino}pyrrolidin-2-one]
IC50 (AHR [1]; [3]): 321 nM
IC50 (AHR [2]): 6.04e-08 M

COc1cccc(-c2nc3c4cc(F)ccc4nc(NC4CCCNC4=O)n3n2)c1 (single isomer, unassigned) [Example 188, 3-{[9-fluoro-2-(3-methoxyphenyl)[1,2,4]triazolo[1,5-c]quinazolin-5-yl]amino}piperidin-2-one]
IC50 (AHR [1]; [3]): 50.4 nM
IC50 (AHR [2]): 3e-08 M

COc1cccc(-c2nc3c4cc(F)ccc4nc(NC4CCCNC4=O)n3n2)c1 (single isomer, unassigned) [Example 189, 3-{[9-fluoro-2-(3-methoxyphenyl)[1,2,4]triazolo[1,5-c]quinazolin-5-yl]amino}piperidin-2-one]
IC50 (AHR [1]; [3]): 114 nM
IC50 (AHR [2]): 2.61e-07 M

COc1cccc(-c2nc3c4c(C)cccc4nc(NC4CCNC4=O)n3n2)c1 (single isomer, unassigned) [Example 190, 3-{[2-(3-methoxyphenyl)-10-methyl[1,2,4]triazolo[1,5-c]quinazolin-5-yl]amino}pyrrolidin-2-one]
IC50 (AHR [1]; [4]): 252 nM
IC50 (AHR [2]): 1.54e-07 M

COc1cccc(-c2nc3c4c(C)cccc4nc(NC4CCNC4=O)n3n2)c1 (single isomer, unassigned) [Example 191, 3-{[2-(3-methoxyphenyl)-10-methyl[1,2,4]triazolo[1,5-c]quinazolin-5-yl]amino}pyrrolidin-2-one]
IC50 (AHR [1]; [4]): 1090 nM
IC50 (AHR [2]): 1.96e-07 M

O=C1NCCNCC1Nc1nc2cccc(C3CC3)c2c2nc(-c3cccc(F)c3)nn12 (single isomer, unassigned) [Example 300, 6-{[10-cyclopropyl-2-(3-fluorophenyl)[1,2,4]triazolo[1,5-c]quinazolin-5-yl]amino}-1,4-diazepan-5-one]
IC50 (AHR [1]; [3]): 6180 nM
IC50 (AHR [2]): > 2e-05 M
